From US20050054653A1, “Pteridine derivatives, method of producing them and their application” (Faustus Forschungs Cie. Translational Cancer Research GmbH, priority 2002, published 2005)

What was measured:
Assay type in all cases: cell-based
COLO 205 = assay: Growth inhibition of human tumor cell line COLO 205; conditions: COLO 205 colon carcinoma
Description: (§1) FIG. 1 is a representation of the IC50 values of the growth inhibition when using the compounds E288, E289 and E499 on the human tumor cell lines COLO 205 and NCI-H460.
(§2) Further in-vitro results of the compounds according to the invention E288 (6-chloro-2-piperazino-4,7-dithiazolidino-pteridine) and E289 (6-methoxy-2-piperazino-4,7-dithiazolidino-pteridine) are summarized in the following in comparison to E499 (6-chloro-2-piperazino-4,7-dipyrrolidino-pteridine) (all IC50 figures are described in [μM]).
(§3) This includes the human cell lines A431 ([…]), OVCAR-3 (ovarian carcinoma), BT-549 and MCF-7 (mammary carcinoma), SK-MEL-28 and SK-MEL-5 (melanoma), SW 620 and HCT-15 (colon), A549 (lung carcinoma) as well as the glioblastoma cell line C6 of the rat.

NCI-H460 = assay: Growth inhibition of human tumor cell line NCI-H460; conditions: NCI-H460 bronchial carcinoma
Description: as §1, §2, §3

human cell line LXFL529L = assay: Proliferation assay (sulforhodamin B assay), growth inhibition of tumor cells; conditions: LXFL 529L
Method: The inhibition of the growth of tumor cells due to the compounds according to the invention was determined on the human cell line LXFL529L. As a proliferation assay the sulforhodamin B assay as described by Skehan et al. (J. Natl. Cancer Inst. 82:1107-1112 (1990)) was used.

IC50 (COLO 205) [µM]	IC50 (NCI-H460) [µM]	IC50 (human cell line LXFL529L) [µM]	Structure (SMILES)	other results
6.19	18.2		Clc1nc2c(N3CCSC3)nc(N3CCNCC3)nc2nc1N1CCSC1 [E288, 6-Chloro-2-Piperazino-4,7-Dithiazolidino-Pteridine]	
9.64	13.9		COc1nc2c(N3CCSC3)nc(N3CCNCC3)nc2nc1N1CCSC1 [E289, 6-Methoxy-2-Piperazino-4,7-Dithiazolidino-Pteridine]	
			Clc1nc2c(N3CCCC3)nc(N3CCNCC3)nc2nc1N1CCCC1 [E499, 6-Chloro-2-Piperazino-4,7-Dipyrrolidino-Pteridine]	IC50 (COLO 205; Homo sapiens): 9.75 µM; IC50 (NCI-H460; Homo sapiens): 31.6 µM
		3.4 ± 1	COc1nc2c(N3CCCC3)nc(N3CCNCC3)nc2nc1N1CCCC1 [E 293, 6-Methoxy-2-Piperazino-4,7-Dipyrrolidino-Pteridine]	
		3 ± 0.3	CSc1nc2c(N3CCCC3)nc(N3CCNCC3)nc2nc1N1CCCC1 [E 294, 6-Methylthio-2-Piperazino-4,7-Dipyrrolidino-Pteridine]	
